Patent publication US4267331A, “Process for the production of 2-substituted pyrido[4,3-b]-indoles” (Pfizer Inc., priority 1980, dated 1981)
Where two headings read alike, the source gives them in different places.

Test system: amphetamine-induced symptoms (cage movement behavior after d-amphetamine sulfate)
Assay: Antagonism of amphetamine stereotypy in rats
Type: in vivo
Conditions: Rattus norvegicus, sc, Part A
Excerpt: The tranquilizing agents of the present invention are characterized by relief of such schizophrenic manifestations in humans as hallucinations, hostility, suspiciousness, emotional or social withdrawal, anxiety, agitation and tension. A standard procedure of detecting and comparing tranquilizing activity of compounds in this series and for which there is an excellent correlation with human efficacy is the antagonism of amphetamine-induced symptoms in rat tests, as taught by A. Weissman, et al., J. Pharmacol. Exp. Ther., 151, 339 (1966) and by Quinton, et al., Nature, 200, 178, (1963).
Antagonism of Amphetamine Stereotypy in Rats Test Procedures and Results
The effects of the compounds of the present invention on prominent amphetamine-induced symptoms were studied in rats by a rating scale modeled after the one reported by Quinton and Halliwell, and Weissman. Groups of five rats were placed in a covered plastic cage measuring approximately 26 cm.×42 cm.×16 cm. After a brief period of acclimation in the cage, the rats in each group were treated subcutaneously (s.c.) with the test compound. They were then treated 1, 5 and 24 hrs. later with d-amphetamine sulfate, 5 mg./kg. intraperitoneally (i.p.). […] On the basis of dose-response data after amphetamine it was possible to determine the effective dose of the compound necessary to antagonize or block the characteristic amphetamine behavior of cage movement for fifty percent of the rats tested (ED50). The time of rating chosen coincides with the peak action of amphetamine which is 60-80 min. after treatment with this agent.
Employing the above-described procedure, the following 4a,9b-trans compounds were tested for their ability to block the behavior effects of amphetamine, the results being reported as the ED50 in mg./kg. at the indicated times: [drawing 33]

In the case of `COc1ccc(C(O)CCCN2CCC3C(C2)c2cc(F)ccc2N3c2ccc(F)cc2)cc1` (stereo not drawn), the ED50 (1 h, s.c. per method b367, 1 Hr., read-out: ED50 (mg./kg.) 1 Hr., antagonism of amphetamine stereotypy) is reported as 0.1 to 0.32 mg/kg, the ED50 (5 h, s.c. per method b367, 5 Hr., read-out: ED50 (mg./kg.) 5 Hr., antagonism of amphetamine stereotypy) is reported as under 0.1 mg/kg and the ED50 (24 h, s.c. per method b367, 24 Hrs., read-out: ED50 (mg./kg.) 24 Hrs., antagonism of amphetamine stereotypy) is reported as under 0.32 mg/kg.
